According to article PMC3597730, “Novel Phenolic Inhibitors of Small/Intermediate-Conductance Ca^2+-Activated K^+ Channels, KCa3.1 and KCa2.3” (PLoS ONE, 2013):
Values joined by “and” are separate entries in the source; they are usually repeats but may differ in a detail not shown here. Equal entries are not always repeated. “Also recorded” adds a separate entry of the source. Where two headings read alike, the source gives them in different places.

Key:
[1] = molecular target: T1, KCa3.1 channels in 3T3 fibroblasts (Mus musculus, UniProt O89109); test: Whole-cell patch-clamp of KCa3.1 currents in 3T3 fibroblasts; format: cell-based; conditions: for remaining activity at 10 µM: read-out: % of control at 10 µM; for KCa3.1 blocking effect (in words) / EC50: whole-cell; for KCa3.1 blocking effect (in words): concentrations up to 50 µM as in Table 1; for remaining activity at 50 µM: compound 50 µM, read-out: % of control at 50 µM; for remaining activity at 1 µM: read-out: % of control at 1 µM
T1 construct: KCa3.1 channels in 3T3 fibroblasts; endogenous in cells; host or cells: 3T3-L1 mouse embryonic fibroblasts

hKv1.2 = molecular target: T2, hKv1.2 (Homo sapiens, UniProt P16389); test: Whole-cell patch-clamp of cloned hKv1.2; format: cell-based; conditions: for remaining activity at 1 µM: hKv1.2, compound 1 µM, read-out: % of control at 1 µM
T2 construct: expressed in transfected cells; host or cells: B82 murine fibroblasts (Methods)
T2 sequence (P16389 whole entry): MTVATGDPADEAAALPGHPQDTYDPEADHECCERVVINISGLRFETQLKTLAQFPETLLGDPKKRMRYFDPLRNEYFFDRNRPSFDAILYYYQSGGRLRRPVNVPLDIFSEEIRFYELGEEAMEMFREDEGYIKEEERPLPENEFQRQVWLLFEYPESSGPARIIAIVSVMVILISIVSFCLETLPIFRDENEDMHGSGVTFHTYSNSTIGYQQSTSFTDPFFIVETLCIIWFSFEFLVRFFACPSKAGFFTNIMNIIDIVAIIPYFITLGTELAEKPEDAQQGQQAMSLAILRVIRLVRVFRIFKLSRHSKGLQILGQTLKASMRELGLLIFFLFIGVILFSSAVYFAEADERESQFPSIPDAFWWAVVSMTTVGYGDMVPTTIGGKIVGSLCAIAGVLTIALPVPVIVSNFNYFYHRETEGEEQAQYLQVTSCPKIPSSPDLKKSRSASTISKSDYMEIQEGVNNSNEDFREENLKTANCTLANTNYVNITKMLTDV

hKCa2.3 = molecular target: T3, hKCa2.3 (Homo sapiens, UniProt Q9UGI6); test: Whole-cell patch-clamp of hKCa2.3 in COS7 cells; format: cell-based; conditions: for remaining activity at 1 µM: COS-7, hKCa2.3, compound 1 µM, mean ± SEM, n ≥ 3, read-out: % of control at 1 µM; for KCa2.3 blocking effect (in words): micromolar concentrations
T3 construct: expressed in transfected cells; host or cells: COS7
T3 sequence (Q9UGI6 whole entry): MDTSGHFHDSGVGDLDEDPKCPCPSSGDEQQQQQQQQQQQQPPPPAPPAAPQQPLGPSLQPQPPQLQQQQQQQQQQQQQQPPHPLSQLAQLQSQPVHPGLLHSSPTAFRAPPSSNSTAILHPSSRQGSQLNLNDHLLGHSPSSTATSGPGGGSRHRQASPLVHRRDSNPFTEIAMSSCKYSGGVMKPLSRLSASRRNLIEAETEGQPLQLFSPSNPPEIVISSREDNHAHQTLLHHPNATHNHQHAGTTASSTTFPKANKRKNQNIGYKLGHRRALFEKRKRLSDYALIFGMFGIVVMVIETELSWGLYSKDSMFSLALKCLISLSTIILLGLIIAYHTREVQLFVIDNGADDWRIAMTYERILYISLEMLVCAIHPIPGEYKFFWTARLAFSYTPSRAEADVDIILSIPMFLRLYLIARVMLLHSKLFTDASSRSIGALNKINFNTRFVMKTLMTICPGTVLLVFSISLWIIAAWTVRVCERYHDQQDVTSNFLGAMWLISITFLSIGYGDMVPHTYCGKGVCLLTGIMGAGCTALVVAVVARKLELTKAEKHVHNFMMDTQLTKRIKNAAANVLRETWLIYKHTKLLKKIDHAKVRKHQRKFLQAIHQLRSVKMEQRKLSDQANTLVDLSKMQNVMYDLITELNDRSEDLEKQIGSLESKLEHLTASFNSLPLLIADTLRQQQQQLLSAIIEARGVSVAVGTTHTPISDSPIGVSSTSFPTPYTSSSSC

[2] = molecular target: T4, cloned human KCa3.1 channel (Homo sapiens, UniProt O15554); test: Inside-out patch recordings from hKCa3.1-overexpressing HEK293 cells; format: biochemical; conditions: inside-out patches; compound 1 µM
T4 construct: expressed in transfected cells; gift of Khaled Houamed, University of Chicago

[3] = tested on: porcine coronary artery rings; test: Isometric myography: 5-HT-induced contractions; conditions: for Δg, 1st stimulation / Δg, 2nd stimulation: 1 µM 5-HT
Method: (§1) Myography on porcine coronary artery rings was performed as described in detail previously, [30]. In brief, left anterior descending arteries or posterior descending arteries were cut into rings (3 mm long) and rings were mounted onto a isometric force transducer (Pioden UF1, Graham Bell House, Canterbury, UK). The organ bath contained a 5 ml Krebs buffer maintained at 37°C and gassed with 95% O2/5% CO2. The composition of the Krebs buffer was as follows (in mM): NaCl 120, NaHCO3 24.5, CaCl2 2.4, KCl 4.7, MgSO4 1.2, KH2PO4 1 and glucose 5.6, pH 7.4. Each ring was passively stretched to an initial tension of 1 gr (10 mN). Changes in force were monitored and recorded on a computer using a Mac Lab System/8e program (AD Instruments Inc, Milford, Ma, USA), and digitalized at a sample rate of 0.5 sec.
(§2) To measure specifically endothelium-derived hyperpolarization-mediated vasorelaxation (EDH), the NO-synthase blocker, Nω-nitro-L-arginine (L-NNA, 300 µM), and the cyclooxygenase blocker, indomethacin (10 µM), were added to the buffer. Preparations were washed three times and were allowed to equilibrate for 40 min. Within this period, the incubation medium was renewed every 20 min. […] Ten min later, bradykinin (1 µM) was added for another 10 min, followed by washout (over at least 10 min). This protocol was repeated (2nd stimulation). Thereafter, we performed a 3rd round of pre-contraction and vasorelaxation, but using the vasospasmic thromboxane analogue U46619 (0.2 µM) as vasocontracting agent. At the end of the experiments, rings were allowed to contract maximally in a KCl (60 mM) buffer for 10 min followed by addition of the compounds. Finally, sodium nitroprusside (10 µM) was added to achieve maximal endothelium-independent vasorelaxation.
(§3) DMSO as the vehicle had no vasoactive effect per se on the tissue. Other compounds were dissolved in Milli-Q water.
(§4) For data analysis, we determined absolute increases in force to 5-HT, U46619, or 60 mM KCl. Bradykinin-induced relaxations were determined as % change of pre-contraction to either vasocontracting compound and relative to the fully relaxed state (in the absence of the vasocontracting agent).

[4] = tested on: porcine coronary artery rings; test: Isometric myography: endothelium-independent relaxation to sodium nitroprusside; conditions: pre-contracted by 60 mM K+
Method: as §1
as §2, with “vasorelaxation. […]” for “vasorelaxation.”
as §4

[5] = tested on: porcine coronary artery rings; test: Isometric myography: bradykinin-induced (EDH) relaxation; conditions: for % relaxation, 5-HT-precontraction / % relaxation, U46619-precontraction: 1 µM bradykinin
Method: as §1, §2, §3, §4

[6] = tested on: porcine coronary artery rings; test: Isometric myography: contractions to 60 mM K+
Method: as §1
as §2, with “vasorelaxation. […]” for “vasorelaxation.”
as §4

[7] = tested on: porcine coronary artery rings; test: Isometric myography: U46619-induced contractions; conditions: 0.2 µM U46619
Method: as §1, §2, §3, §4

[8] = tested on: mixed KCa3.1 and KCa2.3 currents in PCAEC; test: Whole-cell patch-clamp of KCa currents in porcine coronary artery endothelial cells; format: cell-based; conditions: whole-cell, compound 1 µM
[9] = KCa3.1 whole-cell current, 3T3 fibroblasts, 1 µM free Ca2+ in pipette, compound 10 µM, mean ± SEM, n ≥3
[10] = KCa3.1 whole-cell current, 3T3 fibroblasts, 1 µM free Ca2+ in pipette, mean ± SEM, n ≥3
[11] = KCa3.1 whole-cell current, 3T3 fibroblasts, 1 µM free Ca2+ in pipette, compound 1 µM, mean ± SEM, n ≥3
[12] = EC50 of KCa3.1 inhibition, 3T3 fibroblasts
[13] = 3T3 fibroblasts, read-out: EC50 of KCa3.1 inhibition
[14] = 13b 0.5 µM, SKA-31 1 µM, alone or combined
[15] = SKA-31 10 µM, alone or with 13b 0.5 µM

O=C(OC[C@H]1O[C@@H](OC(=O)c2cc(O)c(O)c(O)c2)[C@H](OC(=O)c2cc(O)c(O)c(O)c2)[C@@H](OC(=O)c2cc(O)c(O)c(O)c2)[C@@H]1OC(=O)c1cc(O)c(O)c(O)c1)c1cc(O)c(O)c(O)c1 [1,2,3,4,6-pentagalloyl glucose, [(2S,3R,4S,5R,6R)-2,3,5-tris[(3,4,5-trihydroxybenzoyl)oxy]-6-[(3,4,5-trihydroxybenzoyl)oxymethyl]oxan-4-yl] 3,4,5-trihydroxybenzoate]
remaining activity at 10 µM [1, 9]: 102 ± 6%
KCa3.1 blocking effect (in words) ([1]; 3T3 fibroblasts): no

CC(=O)Oc1ccccc1C(=O)O [2-acetyloxybenzoic acid, reference compound]
remaining activity at 10 µM [1, 9]: 108 ± 5%
remaining activity at 50 µM [1, 10]: 104 ± 7%
KCa3.1 blocking effect (in words) ([1]; 3T3 fibroblasts): no effect

O=C(/C=C/c1ccc(O)c(O)c1)OCCc1ccccc1 [Caffeic acid phenethyl ester, 2-phenylethyl (E)-3-(3,4-dihydroxyphenyl)propenoate]
remaining activity at 10 µM [1, 9]: 94 ± 6%
KCa3.1 blocking effect (in words) ([1]; 3T3 fibroblasts): no

COc1cc(C(=O)OCc2cc(COC(=O)c3ccc(O)c(OC)c3)cc(COC(=O)c3ccc(O)c(OC)c3)c2)ccc1O [Compound 13a, [3,5-bis[(4-hydroxy-3-methoxy-benzoyl)oxymethyl]phenyl]methyl4-hydroxy-3-methoxy-benzoate]
block of hKv1.2 currents (hKv1.2; 1 µM): 50%
remaining activity at 1 µM (hKv1.2): 46 ± 3%
remaining activity at 1 µM (hKCa2.3): 98 ± 1%
KCa2.3 blocking effect (in words) (hKCa2.3): no blocking effects
remaining activity at 1 µM [1, 11]: 78 ± 6%
hKCa3.1 blocking effect (in words) [2]: no or minor blocking effects; also recorded: did not block

O=C(OCc1cc(COC(=O)c2ccc(O)c(Cl)c2)cc(COC(=O)c2ccc(O)c(Cl)c2)c1)c1ccc(O)c(Cl)c1 [Compound 13c, [3,5-bis[(3-chloro-4-hydroxy-benzoyl)oxymethyl]phenyl]methyl3-chloro-4-hydroxy-benzoate]
hKv1.2 blocking effect (in words) (hKv1.2; flufenamic acid and caffeic acid 10 and 50 µM, 13c 1 µM): no effect
remaining activity at 1 µM (hKv1.2): 104 ± 3%
remaining activity at 1 µM (hKCa2.3): 92 ± 4%
KCa2.3 blocking effect (in words) (hKCa2.3): no blocking effects
remaining activity at 1 µM [1, 11]: 61 ± 17%
KCa3.1 blocking effect (in words) ([1]; 3T3 fibroblasts): weak to moderate blocking efficiency
hKCa3.1 blocking effect (in words) [2]: no or minor blocking effects; also recorded: did not block

COc1cc(/C=C/C(=O)O)ccc1O [Ferulic Acid, (E)-3-(4-hydroxy-3-methoxyphenyl)propenoic acid]
EC50 [1, 12]: > 10 µM
remaining activity at 10 µM [1, 9]: 87 ± 8%
remaining activity at 50 µM [1, 10]: 32 ± 4%

O=C(O)c1cc(O)c(O)c(O)c1 [Gallic acid, 3,4,5-trihydroxybenzoic acid]
remaining activity at 10 µM [1, 9]: 101 ± 6%
KCa3.1 blocking effect (in words) ([1]; 3T3 fibroblasts): weak or no blocking effects and no

OCCc1ccc(O)c(O)c1 [Hydroxytyrosol]
remaining activity at 1 µM [1, 11]: 117 ± 9%
remaining activity at 10 µM [1, 9]: 108 ± 15%
KCa3.1 blocking effect (in words) ([1]; 3T3 fibroblasts): weak or no blocking effects and no

Cc1cccc(Nc2ccccc2C(=O)O)c1C [Mefenamic Acid, 2-((2,3-dimethylphenyl)amino)benzoic acid, reference compound]
remaining activity at 1 µM [1, 11]: 117 ± 4%
remaining activity at 10 µM [1, 9]: 136 ± 28%
KCa3.1 blocking effect (in words) ([1]; 3T3 fibroblasts): no blocking effects

Nc1ccc(O)c(C(=O)O)c1 [Mesalamine, 5-amino-2-hydroxybenzoic acid, reference compound]
remaining activity at 1 µM [1, 11]: 72 ± 6%
remaining activity at 10 µM [1, 9]: 53 ± 7%
remaining activity at 50 µM [1, 10]: 46 ± 3%
EC50 [1, 13]: ≥ 10 µM and 26 µM

NC(=O)C[S+]([O-])C(c1ccccc1)c1ccccc1 (stereo not drawn) [Modafinil, 2-benzhydrylsulfinylacetamide, reference compound]
EC50 [1, 12]: > 1 µM
remaining activity at 10 µM [1]: 33 ± 6%

O=C(O)c1cccnc1Nc1cccc(C(F)(F)F)c1 [Niflumic Acid, reference compound]
remaining activity at 10 µM [1, 9]: 106 ± 7%
remaining activity at 50 µM [1, 10]: 81 ± 4%
KCa3.1 blocking effect (in words) ([1]; 3T3 fibroblasts): no blocking activity; also recorded: no blocking effects

Cc1ccc(=O)n(-c2ccccc2)c1 [Pirfenidone, methyl-1-phenylpyridin-2(1H)-one, reference compound]
remaining activity at 10 µM [1, 9]: 98 ± 5%
remaining activity at 50 µM [1, 10]: 99 ± 14%
KCa3.1 blocking effect (in words) ([1]; 3T3 fibroblasts): no effects

Oc1ccc(/C=C/c2cc(O)cc(O)c2)cc1 [Resveratrol, 5-[(E)-2-(4-Hydroxyphenyl)vinyl]benzene-1,3-diol]
EC50 [1, 13]: 10 µM and ~10 µM and 1 to 10 µM

Nc1nc2c(ccc3ccccc32)s1 [SKA-31, naphtho[1,2-d]thiazol-2-ylamine]
Δg, 1st stimulation [3, 14]: 0.4 ± 0.1 g
Δg, 2nd stimulation [3, 14]: 0.5 ± 0.1 g
Δg, 1st stimulation [3, 15]: 0.4 ± 0.1 g
Δg, 2nd stimulation [3, 15]: 0.23 ± 0.02 g
change of amplitude of 5-HT contraction vs. vehicle, 2nd stimulation [3, 15]: −44%
% relaxation to 10 µM SNP [4, 14]: 82±8%
% relaxation to 10 µM SNP [4, 15]: 80±5%
% relaxation, 5-HT-precontraction [5, 14]: 65±6%
% relaxation, U46619-precontraction [5, 14]: 5% and 5±1%
% relaxation, 5-HT-precontraction [5, 15]: 47±8%
% relaxation, U46619-precontraction [5, 15]: 10% and 10±2%
change of bradykinin relaxation vs. vehicle, 5-HT-precontracted rings [5, 14]: +110%
change of bradykinin relaxation vs. vehicle, 5-HT-precontracted rings [5, 15]: +52%
Δg, contraction to 60 mM K+ [6, 14]: 3.2 ± 0.5 g
Δg, contraction to 60 mM K+ [6, 15]: 2.5 ± 0.4 g
Δg [7, 14]: 1.9 ± 0.5 g
Δg [7, 15]: 1.7 ± 0.2 g

Clc1ccccc1C(c1ccccc1)(c1ccccc1)n1cccn1 [TRAM-34, 1-[(2-chlorophenyl) (diphenyl)methyl]-1H-pyrazole, reference compound]
KCa current, % of control [8]: 58±4%
remaining activity at 1 µM [1]: 1 ± 1%
KCa3.1 blocking effect (in words) ([1]; 3T3 fibroblasts): completely inhibited

c1cc2cc(c1)C[n+]1ccc(c3ccccc31)NCc1ccc(cc1)CNc1cc[n+](c3ccccc13)C2 [UCL1684, 6,10-diaza-3(1,3),8(1,4)-dibenzena-1,5(1,4)-diquinolinacyclodecaphane, reference compound]
% of control at 100 nM (hKCa2.3; hKCa2.3 current pre-activated by 1 µM SKA-31, n = 4): 2±1%

COc1cc(C(=O)O)ccc1O [Vanillic Acid, 4-hydroxy-3-methoxybenzoic acid]
EC50 [1, 12]: > 10 µM
remaining activity at 10 µM [1, 9]: 78 ± 11%
remaining activity at 50 µM [1, 10]: 46 ± 12%
KCa3.1 blocking effect (in words) ([1]; 3T3 fibroblasts): weak or no blocking effects; also recorded: Weak inhibition
